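Interpolation was linear, between the two tested concentrations surrounding the appropriate level; five concentrations were tested over 48 hours in 96-well plates. At the GI50, growth is halved.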 Active and inactive are the calls of the source. Cut-off read from the data, not from the text of the source: active = GI50 up to about 1.1 µM and inactive = higher.
Experiments:
Assay in all cases: inhibition of tumour cell growth, NCI panel, 48 h
ACHN = tested on: ACHN
CAKI-1 = tested on: CAKI-1
CCRF-CEM = tested on: CCRF-CEM
EKVX = tested on: EKVX
HOP-62 = tested on: HOP-62
K562 = tested on: K562
KM12 = tested on: KM12
MDA-MB-231 = tested on: MDA-MB-231
MDA-MB-435 = tested on: MDA-MB-435
NCI-H522 = tested on: NCI-H522
OVCAR-3 = tested on: OVCAR-3
PC-3 = tested on: PC-3
RPMI-8226 = tested on: RPMI-8226
SK-MEL-5 = tested on: SK-MEL-5
SN12C = tested on: SN12C
SW-620 = tested on: SW-620
U-251 = tested on: U-251
MOLT-4 = tested on: MOLT-4

Compound | GI50 (ACHN) | GI50 (CAKI-1) | GI50 (CCRF-CEM) | GI50 (EKVX) | GI50 (HOP-62) | GI50 (K562) | GI50 (KM12) | GI50 (MDA-MB-231) | GI50 (MDA-MB-435) | GI50 (NCI-H522) | GI50 (OVCAR-3) | GI50 (PC-3) | GI50 (RPMI-8226) | GI50 (SK-MEL-5) | GI50 (SN12C) | GI50 (SW-620) | GI50 (U-251) | GI50 (MOLT-4)
S=c1nc(N2CCCCC2)c2cn[nH]c2[nH]1 | 54.6 µM (inactive) | 27.7 µM (inactive) | 10.4 µM (inactive) | > 100 µM (inactive) | > 100 µM (inactive) | 29.9 µM (inactive) | 29.5 µM (inactive) | > 100 µM (inactive) | 46.1 µM (inactive) | 16.7 µM (inactive) | 54.8 µM (inactive) | 59.2 µM (inactive) | 12.2 µM (inactive) | 1.53 µM (inactive) | 79.8 µM (inactive) | 57 µM (inactive) | 60.5 µM (inactive) | 
COc1ccc(C2CC(C)(O)Oc3cc4c(cc32)OCO4)cc1 (centres undefined) | 43.2 µM (inactive) | 41.7 µM (inactive) | 19.3 µM (inactive) | 40.2 µM (inactive) | 40.1 µM (inactive) | 15.2 µM (inactive) | 27.3 µM (inactive) | 32.6 µM (inactive) | 7.14 µM (inactive) | 11.2 µM (inactive) | 32.3 µM (inactive) | 18.7 µM (inactive) | 27.4 µM (inactive) | 25.4 µM (inactive) | 45.8 µM (inactive) | 36 µM (inactive) | 31.4 µM (inactive) | 22.1 µM (inactive)
COP(=O)(OC)C12CCOCCN1c1ccccc1C2=O (centres undefined) | > 100 µM (inactive) | > 100 µM (inactive) | > 100 µM (inactive) | > 100 µM (inactive) | > 100 µM (inactive) |  | > 100 µM (inactive) | > 100 µM (inactive) | > 100 µM (inactive) | > 100 µM (inactive) | > 100 µM (inactive) | > 100 µM (inactive) | > 100 µM (inactive) | > 100 µM (inactive) | > 100 µM (inactive) | > 100 µM (inactive) | > 100 µM (inactive) | > 100 µM (inactive)
CCOC(=O)Nn1cnnc1C | > 100 µM (inactive) | > 100 µM (inactive) | > 100 µM (inactive) | > 100 µM (inactive) | > 100 µM (inactive) | > 100 µM (inactive) | > 100 µM (inactive) | > 100 µM (inactive) | > 100 µM (inactive) | > 100 µM (inactive) | > 100 µM (inactive) | > 100 µM (inactive) | > 100 µM (inactive) | > 100 µM (inactive) | > 100 µM (inactive) | > 100 µM (inactive) | > 100 µM (inactive) | > 100 µM (inactive)
Nc1nc(N)c2cc(-c3cc4ccccc4[nH]3)ccc2n1 | 18.9 µM (inactive) | 27.4 µM (inactive) | 35.2 µM (inactive) | 29 µM (inactive) | 30.8 µM (inactive) |  | 17.8 µM (inactive) | 17.2 µM (inactive) | 18.5 µM (inactive) | 17.5 µM (inactive) | 35.6 µM (inactive) | 26.2 µM (inactive) | 14.3 µM (inactive) | 15.2 µM (inactive) | 33 µM (inactive) | 30.8 µM (inactive) | 30.4 µM (inactive) | 26.5 µM (inactive)
Clc1cc(Cl)ncn1 | > 100 µM (inactive) | > 100 µM (inactive) | > 100 µM (inactive) |  | > 100 µM (inactive) | > 100 µM (inactive) | > 100 µM (inactive) | > 100 µM (inactive) | > 100 µM (inactive) | > 100 µM (inactive) | > 100 µM (inactive) | > 100 µM (inactive) | 40.9 µM (inactive) | > 100 µM (inactive) | > 100 µM (inactive) | > 100 µM (inactive) | > 100 µM (inactive) | > 100 µM (inactive)
CCOc1cc2c(cc1O)C=C[C@@H]1[C@@H]2CC[C@]2(C)[C@@H](O)CC[C@@H]12 | 11.6 µM (inactive) | 5.28 µM (inactive) | 3.15 µM (inactive) | 4.79 µM (inactive) | 3.85 µM (inactive) | 1.8 µM (inactive) | 5.3 µM (inactive) | 4.11 µM (inactive) | 0.334 µM (active) | 1.77 µM (inactive) | 1.87 µM (inactive) | 3.64 µM (inactive) | 2.52 µM (inactive) | 1.97 µM (inactive) | 4.52 µM (inactive) | 1.87 µM (inactive) | 3.43 µM (inactive) | 2.91 µM (inactive)
c1ccc(NNN2NC(c3ccccc3)C2c2ccccc2)cc1 (centres undefined) | > 100 µM (inactive) | > 100 µM (inactive) | 59.6 µM (inactive) | > 100 µM (inactive) |  | 91.8 µM (inactive) | > 100 µM (inactive) | > 100 µM (inactive) | > 100 µM (inactive) | 71.9 µM (inactive) | > 100 µM (inactive) | > 100 µM (inactive) | > 100 µM (inactive) | > 100 µM (inactive) | > 100 µM (inactive) | > 100 µM (inactive) | > 100 µM (inactive) | 55 µM (inactive)

Reference: ChEMBL document CHEMBL1201862, “PubChem BioAssay data set” (2004)
